Laboratory results from patent US20230080054A1 (ILDONG PHARMACEUTICAL CO., LTD., priority 2021, published 2023).

Target: T1, human ANO6 (Homo sapiens, UniProt Q4KMQ2)
T1 construct: expressed in transfected cells
T1 sequence (Q4KMQ2 1-931 isoform Q4KMQ2-2): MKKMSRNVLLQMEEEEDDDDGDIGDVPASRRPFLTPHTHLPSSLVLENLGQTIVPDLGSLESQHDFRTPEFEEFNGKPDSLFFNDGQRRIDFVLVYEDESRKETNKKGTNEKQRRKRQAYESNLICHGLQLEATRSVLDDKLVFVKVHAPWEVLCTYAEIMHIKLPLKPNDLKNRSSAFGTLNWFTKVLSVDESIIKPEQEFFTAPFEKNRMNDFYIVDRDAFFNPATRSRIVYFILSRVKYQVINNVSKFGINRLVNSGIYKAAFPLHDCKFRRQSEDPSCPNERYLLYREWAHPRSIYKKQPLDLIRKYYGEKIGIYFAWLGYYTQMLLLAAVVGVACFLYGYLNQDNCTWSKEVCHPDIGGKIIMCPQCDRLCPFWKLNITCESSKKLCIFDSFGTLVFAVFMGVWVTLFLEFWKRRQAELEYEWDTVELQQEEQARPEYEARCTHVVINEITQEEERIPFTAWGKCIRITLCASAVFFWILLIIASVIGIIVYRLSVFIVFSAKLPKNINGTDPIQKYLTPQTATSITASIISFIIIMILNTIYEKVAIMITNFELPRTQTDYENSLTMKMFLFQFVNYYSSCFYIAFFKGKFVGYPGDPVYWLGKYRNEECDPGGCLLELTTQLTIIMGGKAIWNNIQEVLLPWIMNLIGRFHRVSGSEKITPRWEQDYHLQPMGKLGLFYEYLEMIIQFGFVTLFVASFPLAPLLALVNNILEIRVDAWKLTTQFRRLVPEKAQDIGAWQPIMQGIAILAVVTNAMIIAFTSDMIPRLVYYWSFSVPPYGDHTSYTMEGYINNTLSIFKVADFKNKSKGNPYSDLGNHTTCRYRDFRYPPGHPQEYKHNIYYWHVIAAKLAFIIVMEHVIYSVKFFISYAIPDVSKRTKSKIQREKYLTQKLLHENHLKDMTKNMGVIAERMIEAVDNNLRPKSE
Assay: LACT C2 assay (phosphatidylserine scramblase function assay)
Format: cell-based
Details: FRT cells expressing human ANO6, 10 μM ionomycin; for inhibition at 0.1 µM: test compound 100 nM, read-out: Inhibition Level 100 nM; for inhibition at 1 µM: test compound 1 μM, read-out: Inhibition Level 1 μM
Excerpt: Phosphatidylserine Scramblase Function Assay
1. Materials and Instruments
Ionomycin (Alomonelab, cat. #I-700), DAPI (Sigma-Aldrich, cat. #D8417), paraformaldehyde (Biosesang, cat. #P2031), Lionheart FX Automated Microscope (BioTek, Winooski), Python3 (Python Software Foundation), and OpenCV (Open Source Computer Vision Library).
Fisher rat thyroid (FRT) cells stably expressing human ANO6 (GenBank accession no. NP_001191732.1, provided by J. H. Nam, Dongguk University College of Medicine, Korea) were grown in DMEM/Ham's F-12 (1:1) medium with 10% FBS, 2 mM L-549 glutamine, 100 units/mL penicillin, and 100 μg/mL streptomycin at 37° C. and 5% CO2.
FRT cells stably expressing human ANO6 were plated in 96 well black-walled microplates at a density of 2×10^4 cells/well. After 24 hours incubation, cells were treated with the test compound (dissolved in DMSO) were treated to each well to become 1% v/v DMSO for 10 minutes, then 10 μM of ionomycin was applied. Finally each well was washed with 200 μL PBS after 10 minutes. After washout, the phosphatidylserine and nuclei were stained with PBS containing 500 nM Lactadherin-C2 (Lact-C2)-GFP, then cells were washed with 200 μL PBS. Cells were fixed with 4% paraformaldehyde for 5 minutes at room temperature. For morphological analysis, some cells were stained with fluorescently labelled DAPI for 15 minutes at room temperature. Quantitative analysis of the fluorescence intensity of Lact-C2-GFP was performed with Python3 and OpenCV. OpenCV was used to remove background and noise pixels, and the sum of all remaining pixel values was used to evaluate the fluorescence intensity of Lact-C2-GFP.
The inhibitory activity (%) of each of the test compounds was obtained by the following steps. In each row of 96 well plate, the inhibitory activity of each of the test compounds was calculated as percentages. The inhibitory activity of a negative control group to which neither compounds nor ionomycin were treated was set to be 100%, and the inhibitory activity of a positive control group to which ionomycin was treated and compounds were not treated was set to be 0%. The assay was performed in triplicate, and the results were averaged.

Row | inhibition at 0.1 µM | inhibition at 1 µM | Compound
1 | < 30% | < 30% | O=C(NCc1ccccc1F)c1cccc(Nc2ncc(-c3cccc(F)c3)cn2)c1 [Compound 203, N-(2-fluorobenzyl)-3-((5-(3-fluorophenyl)pyrimidin-2-yl)amino)benzamide]
2 | < 30% | 30 to 60% | Cc1ccc(CNC(=O)c2cccc(Nc3ncc(-c4cccc(F)c4)cn3)c2)c(C)c1 [Compound 206, N-(2,4-dimethylbenzyl)-3-((5-(3-fluorophenyl)pyrimidin-2-yl)amino)benzamide]
3 | < 30% | < 30% | Cc1ccc(CCNC(=O)c2cccc(Nc3ncc(-c4ccccc4)cn3)c2)o1 [Compound 153, N-(2-(5-methylfuran-2-yl)ethyl)-3-((5-phenylpyrimidin-2-yl)amino)benzamide]
4 | < 30% | < 30% | Cc1cc(CNC(=O)c2cccc(Nc3ccc(-c4ccccc4)nn3)c2)ccc1F [Compound 231, N-(4-fluoro-3-methylbenzyl)-3-((6-phenylpyridazin-3-yl)amino)benzamide]
5 | < 30% | < 30% | O=C(NCc1cc(F)c(F)cc1F)c1cccc(Nc2ncc(-c3cccc(F)c3)cn2)c1 [Compound 209, 3-((5-(3-fluorophenyl)pyrimidin-2-yl)amino)-N-(2,4,5-trifluorobenzyl)benzamide]
6 | < 30% | 30 to 60% | O=C(NC1(c2ccc(F)cc2)CC1)c1cccc(Nc2ccc(-c3ccccc3)nn2)c1 [Compound 196, N-(1-(4-fluorophenyl)cyclopropyl)-3-((6-phenylpyridazin-3-yl)amino)benzamide]
7 | < 30% | 30 to 60% | O=C(NCc1ccc(F)c(F)c1)c1cccc(Nc2ccc(-c3ccccc3)nn2)c1 [Compound 230, N-(3,4-difluorobenzyl)-3-((6-phenylpyridazin-3-yl)amino)benzamide]
8 | < 30% |  | O=C(Nc1ccc2c(c1)CNC2)c1cccc(Nc2ncc(-c3cccc(F)c3)cn2)c1 [Compound 192, 3-((5-(3-fluorophenyl)pyrimidin-2-yl)amino)-N-(isoindolin-5-yl)benzamide]
9 | < 30% | 30 to 60% | O=C(NCc1ccc(F)c(F)c1F)c1cccc(Nc2ncc(-c3cccc(F)c3)cn2)c1 [Compound 217, 3-((5-(3-fluorophenyl)pyrimidin-2-yl)amino)-N-(2,3,4-trifluorobenzyl)benzamide]
10 | < 30% | < 30% | CN1CCC(CNC(=O)c2cccc(Nc3ccc(-c4cccc(F)c4)cn3)c2)CC1 [Compound 140, 3-((5-(3-fluorophenyl)pyridin-2-yl)amino)-N-((1-methylpiperidin-4-yl)methyl)benzamide]
11 | < 30% | ≥ 60% | Cc1ccc(NC(=O)c2cccc(Nc3ncc(-c4cccc(F)c4)cn3)c2)cc1C [Compound A92]
12 | < 30% | ≥ 60% | O=C(Nc1cccc(F)c1)c1cccc(Nc2ccc(-c3ccncc3)cc2)c1 [Compound 162, N-(3-fluorophenyl)-3-((4-(pyridin-4-yl)phenyl)amino)benzamide]
13 | < 30% | < 30% | Nc1cccc(CCNC(=O)c2cccc(Nc3ncc(-c4cccc(F)c4)cn3)c2)c1 [Compound 147, N-(3-aminophenethyl)-3-((5-(3-fluorophenyl)pyrimidin-2-yl)amino)benzamide]
14 | < 30% | < 30% | COc1cc(CNC(=O)c2cccc(Nc3ccc(-c4ccccc4)nn3)c2)ccc1F [Compound 232, N-(4-fluoro-3-methoxybenzyl)-3-((6-phenylpyridazin-3-yl)amino)benzamide]
15 | < 30% | < 30% | N#CC(NC(=O)c1cccc(Nc2ccc(-c3ccccc3)nn2)c1)c1ccc(F)cc1 (centres unmarked) [Compound 212, N-(cyano(4-fluorophenyl)methyl)-3-((6-phenylpyridazin-3-yl)amino)benzamide]
